Data on 5 compounds can be found in paper PMC5233962 (Scientific Reports, 2017).

One data set has as its system MAO. As to conditions: cited from earlier work.
In a further data set the target is rodent H3R. Nature of the data set: Affinity at rodent H3R (discussion). The class given is binding. To be noted: rodent vs human H3R.
In data set [1] the target is T1, human recombinant membrane-bound MAO B (Homo sapiens, UniProt P27338).
T1 construct: purchased Sigma-Aldrich
T1 sequence (P27338 1-520): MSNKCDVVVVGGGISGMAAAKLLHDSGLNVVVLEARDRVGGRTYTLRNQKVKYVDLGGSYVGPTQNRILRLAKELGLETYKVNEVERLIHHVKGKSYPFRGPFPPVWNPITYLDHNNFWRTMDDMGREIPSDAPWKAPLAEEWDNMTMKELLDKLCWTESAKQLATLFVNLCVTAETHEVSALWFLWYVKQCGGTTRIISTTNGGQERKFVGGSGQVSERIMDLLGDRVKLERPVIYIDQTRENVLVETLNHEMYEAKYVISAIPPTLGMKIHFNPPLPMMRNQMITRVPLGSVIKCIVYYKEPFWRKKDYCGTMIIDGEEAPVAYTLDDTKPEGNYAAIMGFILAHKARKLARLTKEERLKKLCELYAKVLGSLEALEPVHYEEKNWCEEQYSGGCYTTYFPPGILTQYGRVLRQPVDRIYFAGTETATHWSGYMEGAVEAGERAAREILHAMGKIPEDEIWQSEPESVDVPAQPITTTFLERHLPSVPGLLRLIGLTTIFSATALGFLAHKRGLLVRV
Nature of the data set: Spectrophotometric IC50 determination, human MAO B. It counts as biochemical. As to conditions: for IC50: spectrophotometric, read-out: IC50 hMAO B.

Another data set addresses T2, rat brain MAO A (Rattus norvegicus, UniProt P21396).
T2 construct: the crude homogenates prepared from pooled brain from three rats were used; from tissue; host or cells: Wistar rat brain, crude homogenate
Nature of the data set: Radiometric IC50 determination, rat brain MAO A. To be noted: substrate 5-HT, rat brain homogenate, read-out: IC50 rMAO A. It counts as biochemical. How it is done: (§1) The IC50 values of ciproxifan for rat brain MAO (rMAO) were obtained radiometrically using serotonin (5-HT) and phenylethylamine (PEA) as MAO A and MAO B substrates, respectively.
(§2) Wistar male rats were sacrificed, the brains were quickly excised from the skulls, cleaned of residual meninges and frozen on dry ice. For each experiment the crude homogenates prepared from pooled brain from three rats were used. Enzyme activity of MAO A or MAO B was measured using radioactive substrate (PerkinElmer/NEN): serotonin (5-[2-^14C]-hydroxytryptamine binoxalate) or β-[ethyl-1-^14C]-phenyl-ethyl-amine hydrochloride (PEA), respectively, with the procedure described by Fowler and Tipton 1981[25] with some modification according to Gómez et al.[26]. […] IC50 values were determined in three independent experiments, each performed in duplicates.

The target of a further data set is T3, rat brain MAO B (Rattus norvegicus, UniProt P19643).
T3 construct: the crude homogenates prepared from pooled brain from three rats were used; from tissue; host or cells: Wistar rat brain, crude homogenate
In words: Radiometric IC50 determination, rat brain MAO B. It counts as biochemical. On the procedure: as §1, §2

In another data set the test system is hMAO. Nature of the data set: Type of inhibition from dilution experiments, both hMAO isoforms. As to conditions: dilution experiment, preincubation 10 × IC50, 100-fold dilution. It counts as biochemical, human. On the procedure:
After preincubation probes were diluted 100-fold, measured at saturated substrate conditions and the remaining enzyme activity was compared to that of MAO preincubated without ciproxifan.
Reversibility of hMAO inhibition by ciproxifan was assessed by dilution experiments. […] The inhibitor volume represented one-tenth of the total preincubation volume. […] Enzymatic conversion rates were determined in the presence of kynuramine for hMAO A and benzylamine for hMAO B at saturating substrate concentrations (10 × KM) under potassium phosphate buffer conditions (50 mM, pH = 7.4).

For a further data set, the target named is rH3R. As to conditions: rat H3R; cited from earlier work.
The target in another data set is mH3R. The arrangement: method as in PMID 15341517. To be noted: mouse H3R; cited from earlier work.
Another data set addresses mkH3R. On the set-up: method as in PMID 14660004. As to conditions: monkey H3R; cited from earlier work.
The target of another data set is hH3R. On the set-up: method as in PMID 11090094, PMID 12606603, PMID 14660004. As to conditions: human H3R; cited from earlier work.
The target of a further data set is hH1R. The arrangement: method as in PMID 12606603. As to conditions: human; cited from earlier work.
The target of a further data set is hH2R. The arrangement: method as in PMID 12606603. As to conditions: human; cited from earlier work.
The target of another data set is hH4R. On the set-up: method as in PMID 12606603. To be noted: human; cited from earlier work.
Another data set addresses hα2C. On the set-up: method as in PMID 12606603. As to conditions: human; cited from earlier work.
The target in the next data set is hα2A. On the set-up: method as in PMID 12606603. To be noted: human; cited from earlier work.
Another data set has as its target rα1D. The arrangement: method as in PMID 9808693. To be noted: rat aorta; cited from earlier work.
The next data set deals with gpβ1. On the set-up: method as in PMID 9808693. As to conditions: guinea pig atrium; cited from earlier work.
A further data set addresses gp M3. The arrangement: method as in PMID 9808693. To be noted: guinea pig ileum; cited from earlier work.
Another data set deals with gp5-HT3. On the set-up: method as in PMID 9808693. To be noted: guinea pig ileum; cited from earlier work.
For a further data set, the target named is gp5-HT1B. On the set-up: method as in PMID 9808693. To be noted: guinea pig iliac; cited from earlier work.
In a further data set the target is r5-HT1. On the set-up: method as in PMID 18683917. As to conditions: rat; cited from earlier work.
The target in another data set is r5-HT2A. The arrangement: method as in PMID 9808693. As to conditions: rat tail; cited from earlier work.
The target in another data set is r5-HT3. The arrangement: method as in PMID 12606603. As to conditions: rat; cited from earlier work.
Another data set deals with r5-HT4. On the set-up: method as in PMID 9808693. To be noted: rat esophagus; cited from earlier work.
On the set-up of data set [2]: method as in PMID 18305012. To be noted: applied i.p. to rats; cited from earlier work.
Data set [3] concerns the target human recombinant membrane-bound MAO A (Homo sapiens, UniProt P21397). Nature of the data set: Spectrophotometric IC50 determination, human MAO A. As to conditions: IC50 hMAO A, substrate KYN.
Protocol: Enzyme studies were carried out using human recombinant membrane-bound MAO A and MAO B (Sigma-Aldrich, St. Louis, MO). […] For optimal enzyme activity all assays were carried out under potassium phosphate buffered conditions (50 mM, pH = 7.4). […] Data were analysed using GraphPad PRISM version 6. For IC50 determinations initial velocities for each experiment were normalized (expressed as percentage), plotted against inhibitor concentrations and fitted using the non-linear regression “log inhibitor vs. response (three parameters)”. IC50 values were determined in at least three independent experiments, each performed at least in duplicates.

Several values for one entry are separate records, joined by “and”; a condition that tells them apart may be missing. Identical values can stand only once. Like-named read-outs stand apart in the source and are kept apart here.

As usually defined, the Ki is the equilibrium dissociation constant of an inhibitor or competing ligand from its target. In general, IC50 refers to the concentration that gives 50% inhibition.

T3 sequence (P19643 whole entry): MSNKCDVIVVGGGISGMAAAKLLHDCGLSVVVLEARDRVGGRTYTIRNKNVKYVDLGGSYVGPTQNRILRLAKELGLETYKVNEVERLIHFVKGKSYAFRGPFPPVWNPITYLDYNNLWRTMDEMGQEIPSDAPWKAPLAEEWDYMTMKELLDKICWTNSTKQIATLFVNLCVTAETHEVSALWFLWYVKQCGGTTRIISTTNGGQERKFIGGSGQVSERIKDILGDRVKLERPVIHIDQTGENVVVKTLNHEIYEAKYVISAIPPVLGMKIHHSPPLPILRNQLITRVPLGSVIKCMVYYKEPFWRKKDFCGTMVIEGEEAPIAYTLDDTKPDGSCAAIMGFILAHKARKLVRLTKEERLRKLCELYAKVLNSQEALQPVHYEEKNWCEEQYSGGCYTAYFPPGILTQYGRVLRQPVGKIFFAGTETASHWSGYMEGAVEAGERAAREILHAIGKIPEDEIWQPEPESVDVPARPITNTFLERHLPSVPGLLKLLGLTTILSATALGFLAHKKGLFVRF
human recombinant membrane-bound MAO A, sequence (P21397 whole entry): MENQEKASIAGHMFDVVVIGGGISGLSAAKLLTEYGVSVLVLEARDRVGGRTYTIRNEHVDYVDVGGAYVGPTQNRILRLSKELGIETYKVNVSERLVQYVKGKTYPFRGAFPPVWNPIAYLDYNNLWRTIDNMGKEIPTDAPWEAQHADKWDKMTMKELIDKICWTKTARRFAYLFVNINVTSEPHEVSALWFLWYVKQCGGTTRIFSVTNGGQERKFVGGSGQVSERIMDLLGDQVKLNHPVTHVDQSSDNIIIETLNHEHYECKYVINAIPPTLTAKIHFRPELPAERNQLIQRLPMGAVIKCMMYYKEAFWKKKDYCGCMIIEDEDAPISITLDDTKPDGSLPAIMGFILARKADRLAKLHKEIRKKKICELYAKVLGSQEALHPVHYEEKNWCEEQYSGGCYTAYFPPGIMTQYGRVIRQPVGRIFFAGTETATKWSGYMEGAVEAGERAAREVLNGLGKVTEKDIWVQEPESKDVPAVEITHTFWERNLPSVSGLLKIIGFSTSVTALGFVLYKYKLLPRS
T2 sequence (P21396 whole entry): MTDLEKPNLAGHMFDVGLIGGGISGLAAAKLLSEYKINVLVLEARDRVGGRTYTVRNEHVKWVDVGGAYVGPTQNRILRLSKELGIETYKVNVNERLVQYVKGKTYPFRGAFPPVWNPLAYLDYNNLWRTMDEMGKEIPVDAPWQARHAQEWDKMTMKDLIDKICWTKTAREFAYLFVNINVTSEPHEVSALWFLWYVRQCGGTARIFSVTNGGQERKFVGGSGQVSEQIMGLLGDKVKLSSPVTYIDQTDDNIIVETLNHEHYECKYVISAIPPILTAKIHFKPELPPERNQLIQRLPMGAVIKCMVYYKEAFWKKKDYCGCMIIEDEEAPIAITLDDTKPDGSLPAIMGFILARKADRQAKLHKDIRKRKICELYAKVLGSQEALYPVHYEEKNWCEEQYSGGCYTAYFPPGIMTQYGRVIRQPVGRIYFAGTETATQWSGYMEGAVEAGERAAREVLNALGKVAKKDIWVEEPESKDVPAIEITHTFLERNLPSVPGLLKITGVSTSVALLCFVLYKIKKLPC

Consider `C#CCN(C)[C@H](C)Cc1ccccc1` [L-Deprenyl], for which the “Inhibition Type” value with MAO was “Mixed/Irreversible[33]”.
As for `O=C(NCCN1CCOCC1)c1ccc(Cl)cc1` [Moclobemide], the “Inhibition Type” value in the data set on MAO is “Reversible[32]”.
Take `C#CCN(C)CCCOc1ccc(Cl)cc1Cl` [Clorgyline]: the “Inhibition Type” value in the data set with MAO was “Mixed/Irreversible[33]”.
In the case of `O=C(c1ccc(OCCCc2cnc[nH]2)cc1)C1CC1` [Ciproxifan, cyclopropyl 4-(3-(1H-imidazol-4-yl)propyloxy)phenyl methanone], at rodent H3R, the inhibition constant Ki at rodent H3R, fold lower than at the human H3R was 30- to 100 fold. For the same compound, the “IC50, MAO B/IC50, MAO A” value in data set [1] (human MAO) is on record as 0.2; on rat brain MAO B (rat brain MAO), 0.4. Also, in [1] (human MAO B over MAO A), the “preference for MAO B” value was “about 5 fold”. Also, the IC50 in data set [1] (substrate BZA) was 4.3 ± 0.7 µM; in data set [1] (substrate KYN) it was 2 µM and 2.1 µM; on rat brain MAO A, 38 µM and 37.5 µM; at rat brain MAO B (substrate PEA, radiometric, rat brain homogenate, read-out: IC50 rMAO B), 15 µM and 15.4 µM; in data set [3], 11 µM and 11.4 µM. Also, the “Inhibition Type” value in the data set with hMAO is reported as “Reversible”. The inhibitory constant (Ki) is 0.0004 to 0.0062 µM on rH3R; 0.0005 to 0.0008 µM on mH3R; 0.041 µM at mkH3R; 0.046 to 0.18 µM on hH3R; more than 10 µM at hH1R; more than 10 µM on hH2R. The Ki on hH4R is 1.86 µM; on hα2C it was 0.063 µM; at hα2A, 0.043 µM; on rα1D, 3.98 µM; at gpβ1, 12.6 µM; on gp M3 it was 3.16 µM. Also, the inhibitory constant (Ki) on gp5-HT3 was more than 3.16 µM; at gp5-HT1B, more than 10 µM; at r5-HT1, 16.6 µM; at r5-HT2A it was 15.8 µM; on r5-HT3, 0.302 µM; on r5-HT4, more than 2 µM. Also, in data set [2], the brain concentrations was not above 10 µM.
With `C[C@H](NCc1ccc(OCc2cccc(F)c2)cc1)C(N)=O` [Safinamide], in the data set on MAO, the “Inhibition Type” value is “Reversible[20]”.
